Assay results as given in patent publication US20240124460A1, “METHODS AND COMPOSITIONS FOR TARGETED PROTEIN DEGRADATION” (Ranok Therapeutics (Hangzhou) Co. Ltd., priority 2020, published 2024).

Columns and labels:
[1] = system: U-87 MG human glioblastoma; experiment: U87 MG CCK-8 proliferation assay; assay type: cell-based; details: Homo sapiens, U-87 MG, 72 h, U-87 MG cells, read-out: U87MG CCK-8
Procedure, shortened: (§1)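 3-fold dilution series, 20 μM–1.02 nM; ATCC culture conditions; CCK-8 absorbance read-out; % inhibition = 100 − (D−B)/(S−B)×100, S = DMSO cells, B = medium + DMSO, no cells.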

HSP90α protein [2] = biological target: T1, HSP90α protein (Homo sapiens, UniProt P07900); experiment: HSP90α-binding FP (FITC) assay; details: FP competition with FITC-geldanamycin
T1 construct: purchased BPS Bioscience #50298
Method: Binding of test compounds to HSP90α protein was measured by fluorescent polarization (FP) using the HSP90α (N-terminal) Assay Kit (BPS Bioscience, #50298), following the manufacturer's instructions, except as noted. Fluorescently labeled HSP90-binding compounds, either the provided FITC-geldanamycin (5 nM final concentration) or RNK04010, a triazolone-based HSP90 binding small molecule labeled with BODIPY through a piperazine-phenyl linker (5 nM final concentration) were employed. A 2.5-fold serial dilution of each test compound ranging from 20 μM to 5.2 nM was assayed for binding to HSP90α. After the final step of adding HSP90α protein to each assay well, plates were mixed by brief shaking, incubated at 25° C. for 120 min for FITC-geldanamycin or 300 min for RNK04010, and fluorescence was measured using a PerkinElmer EnVision Plate Reader.

[3] = system: MV-4-11 human acute myeloid leukemia; experiment: MV-4-11 CCK-8 proliferation assay; assay type: cell-based; details: Homo sapiens, MV4-11; MV-4-11 cells, 72 hr
Procedure, shortened: as §1

MAPK7 = MAPK7 (Homo sapiens, UniProt Q13164); experiment: MAPK7 Western blot protein degradation assay in U-87 MG cells; assay type: cell-based; set-up: U-87 MG human glioblastoma cells, which express MAPK7; endogenous in cells; host or cells: U-87 MG; details: 48 hr
Chain of MAPK7 (Q13164 whole entry): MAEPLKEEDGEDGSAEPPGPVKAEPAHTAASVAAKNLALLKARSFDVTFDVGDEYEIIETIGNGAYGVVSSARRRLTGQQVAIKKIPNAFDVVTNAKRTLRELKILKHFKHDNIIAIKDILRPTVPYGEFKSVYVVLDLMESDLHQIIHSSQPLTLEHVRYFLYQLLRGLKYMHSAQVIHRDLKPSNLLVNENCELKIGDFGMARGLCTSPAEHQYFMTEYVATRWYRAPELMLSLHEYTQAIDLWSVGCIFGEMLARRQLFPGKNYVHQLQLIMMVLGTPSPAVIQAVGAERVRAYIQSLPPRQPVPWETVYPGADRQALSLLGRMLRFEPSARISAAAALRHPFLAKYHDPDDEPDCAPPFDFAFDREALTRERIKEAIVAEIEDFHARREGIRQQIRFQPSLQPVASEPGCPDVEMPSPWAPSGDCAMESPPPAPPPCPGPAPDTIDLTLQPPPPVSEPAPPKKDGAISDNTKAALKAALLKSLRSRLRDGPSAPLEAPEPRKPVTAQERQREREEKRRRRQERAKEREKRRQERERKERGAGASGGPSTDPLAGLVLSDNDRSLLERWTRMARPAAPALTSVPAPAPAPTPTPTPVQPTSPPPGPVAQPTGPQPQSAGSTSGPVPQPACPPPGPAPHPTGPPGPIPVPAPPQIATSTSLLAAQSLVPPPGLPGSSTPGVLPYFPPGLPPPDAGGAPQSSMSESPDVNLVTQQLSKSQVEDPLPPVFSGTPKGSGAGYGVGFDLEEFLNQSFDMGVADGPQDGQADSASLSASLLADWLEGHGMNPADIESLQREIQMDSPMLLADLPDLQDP
Method: U-87 MG human glioblastoma cells were seeded in 6- or 12-well tissue culture plates, and after 1 hr, test compounds were added at various concentrations and incubated at 37° C./5% CO2 for 48 hr. Cells were then washed with cold PBS, aspirated and cold RIPA buffer containing a protease/phosphatase inhibitor cocktail was added to lyse cells. After centrifugation, the total protein concentrations of cell lysates were determined using the BCA protein assay. Samples were normalized for equivalent protein concentrations, 5×SDS-PAGE loading buffer added and denatured at 100° C. for 10 min. 20 μl of each sample/well was loaded on a SDS-PAGE gel and electrophoresed for 20 min at 80 V, then 120 V for 1.5 hr. Gels were then electroblotted to nitrocellulose membranes using a wet-transfer method at 250 mA for 2.5 hr. Membranes were incubated with blocking buffer for 1 hr and washed 3 times with TBST for 5 min. Membranes were then incubated with anti-MAPK7 (anti-ERK5; Cell Signaling Technology, #12950) and anti-3-Actin (Cell Signaling Technology, #3700) monoclonal antibodies diluted in blocking buffer at 4° C. overnight per the manufacturer's recommendations. After washing 3 times, blots were incubated with appropriately labeled secondary antibodies for 1 hr at room temperature and washed again. Fluorescence imaging and quantitation was performed using a LI-COR Odyssey. Results was analyzed using GraphPad Prism 7 software.

HSP90α protein [4] = biological target: T1, HSP90α protein; experiment: HSP90α-binding FP (BODIPY) assay; details: FP competition with BODIPY-labeled RNK04010
Procedure, shortened: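 Fluorescence polarization measured competition with N-terminal human HSP90α, using either FITC-geldanamycin or BODIPY-labelled triazolone RNK04010 as tracer (5 nM final each). Compounds were tested in 2.5-fold dilutions from 20 μM to 5.2 nM, with incubation at 25 °C for 120 min (FITC) or 300 min (BODIPY).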

ERBB2 = ERBB2 (HER2) flow cytometry protein degradation assay in BT-474 cells; assay type: cell-based, human; details: DC50, BT-474 cells, 24 hr
Method: To analyze total ERBB2 expression by flow cytometry, cells were detached with trypsin, washed, counted and treated with 10 μl/10^6 cells PE-conjugated, anti-ERBB2 monoclonal antibody (R&D Systems, #FAB1129P) for 30 min at 25° C. in dark. Cells were then washed, resuspended in 200 μl 1% paraformaldehyde and analyzed by flow cytometry.
% Inhibition=100−(D−B)/(S−B)*100%. • S: Fluorescence intensity of cells with antibody • D: Fluorescence intensity of compound-treated cells with antibody • B: Fluorescence intensity of cells without antibody

EC50 [1] [µM]	IC50 (HSP90α protein [2]) [µM]	EC50 [3] [µM]	MAPK7 degradation (30 nM) (MAPK7)	MAPK7 degradation (100 nM) (MAPK7)	MAPK7 degradation (300 nM) (MAPK7)	MAPK7 degradation (1000 nM) (MAPK7)	IC50 (HSP90α protein [4]) [µM]	SMILES	ERBB2 degradation (ERBB2)
0.1 to 1	0.1 to 1	< 0.1	–	–	–	–	–	CCOc1cc(N2CCC(C(=O)NCCc3ccc(-n4c(O)nnc4-c4cc(C(C)C)c(O)cc4O)cc3)CC2)ccc1Nc1ncc2c(n1)N(C)c1ccccc1C(=O)N2C [Compound 008, N-(4-(3-(2,4-dihydroxy-5-isopropylphenyl)-5-hydroxy-4H-1,2,4-triazol-4-yl)phenethyl)-1-(4-((5,11-dimethyl-6-oxo-6,11-dihydro-5H-benzo[e]pyrimido[5,4-b][1,4]diazepin-2-yl)amino)-3-ethoxyphenyl)piperidine-4-carboxamide]	–
> 1	0.1 to 1	0.1 to 1	–	–	–	–	–	CCOc1cc(N2CCC(C(=O)NCC3CCN(C(=O)C4CCN(Cc5ccc(-n6c(O)nnc6-c6cc(CC)c(O)cc6O)cc5)CC4)CC3)CC2)ccc1Nc1ncc2c(n1)N(C)c1ccccc1C(=O)N2C [Compound 011, 1-(4-((5,11-dimethyl-6-oxo-6,11-dihydro-5H-benzo[e]pyrimido[5,4-b][1,4]diazepin-2-yl)amino)-3-ethoxyphenyl)-N-((1-(1-(4-(3-(5-ethyl-2,4-dihydroxyphenyl)-5-hydroxy-4H-1,2,4-triazol-4-yl)benzyl)piperidine-4-carbonyl)piperidin-4-yl)methyl)piperidine-4-carboxamide]	–
> 1	0.1 to 1	0.1 to 1	–	–	–	–	–	CCOc1cc(N2CCC(C(=O)NCC3CCN(C(=O)C4CCN(Cc5ccc(-n6c(O)nnc6-c6cc(CC)c(O)cc6O)cc5)CC4)C3)CC2)ccc1Nc1ncc2c(n1)N(C)c1ccccc1C(=O)N2C (stereo not shown) [Compound 012, 1-(4-((5,11-dimethyl-6-oxo-6,11-dihydro-5H-benzo[e]pyrimido[5,4-b][1,4]diazepin-2-yl)amino)-3-ethoxyphenyl)-N-((1-(1-(4-(3-(5-ethyl-2,4-dihydroxyphenyl)-5-hydroxy-4H-1,2,4-triazol-4-yl)benzyl)piperidine-4-carbonyl)pyrrolidin-3-yl)methyl)piperidine-4-carboxamide]	–
0.1 to 1	0.1 to 1	< 0.1	–	–	–	–	–	CCOc1cc(N2CCC(C(=O)NCCOCCOc3ccc(-n4c(O)nnc4-c4cc(C(C)C)c(O)cc4O)cc3)CC2)ccc1Nc1ncc2c(n1)N(C)c1ccccc1C(=O)N2C [Compound 015, N-(2-(2-(4-(3-(2,4-dihydroxy-5-isopropylphenyl)-5-hydroxy-4H-1,2,4-triazol-4-yl)phenoxy)ethoxy)ethyl)-1-(4-((5,11-dimethyl-6-oxo-6,11-dihydro-5H-benzo[e]pyrimido[5,4-b][1,4]diazepin-2-yl)amino)-3-ethoxyphenyl)piperidine-4-carboxamide]	–
0.1 to 1	0.1 to 1	< 0.1	–	–	–	–	–	CCOc1cc(N2CCC(C(=O)NCCOCCOCCOc3ccc(-n4c(O)nnc4-c4cc(C(C)C)c(O)cc4O)cc3)CC2)ccc1Nc1ncc2c(n1)N(C)c1ccccc1C(=O)N2C [Compound 016, N-(2-(2-(2-(4-(3-(2,4-dihydroxy-5-isopropylphenyl)-5-hydroxy-4H-1,2,4-triazol-4-yl)phenoxy)ethoxy)ethoxy)ethyl)-1-(4-((5,11-dimethyl-6-oxo-6,11-dihydro-5H-benzo[e]pyrimido[5,4-b][1,4]diazepin-2-yl)amino)-3-ethoxyphenyl)piperidine-4-carboxamide]	–
> 1	0.1 to 1	< 0.1	–	–	–	–	–	CCOc1cc(N2CCC(C(=O)NCCOCCOCCOc3ccc(-n4c(O)nnc4-c4cc(CC)c(O)cc4O)cc3)CC2)ccc1Nc1ncc2c(n1)N(C)c1ccccc1C(=O)N2C [Compound 017, 1-(4-((5,11-dimethyl-6-oxo-6,11-dihydro-5H-benzo[e]pyrimido[5,4-b][1,4]diazepin-2-yl)amino)-3-ethoxyphenyl)-N-(2-(2-(2-(4-(3-(5-ethyl-2,4-dihydroxyphenyl)-5-hydroxy-4H-1,2,4-triazol-4-yl)phenoxy)ethoxy)ethoxy)ethyl)piperidine-4-carboxamide]	–
0.1 to 1	–	< 0.1	C (< 33% degradation)	C (< 33% degradation)	B (33-66% degradation)	A (>66% degradation)	0.1 to 1	CCOc1cc(N2CCC(C(=O)N3CCC(CN4CCN(Cc5ccc(-n6c(C(=O)NCC(F)(F)F)nnc6-c6cc(CC)c(O)cc6O)cc5)CC4)CC3)CC2)ccc1Nc1ncc2c(n1)N(C)c1ccccc1C(=O)N2C [Compound 022, 4-(4-((4-((1-(1-(4-((5,11-dimethyl-6-oxo-6,11-dihydro-5H-benzo[e]pyrimido[5,4-b][1,4]diazepin-2-yl)amino)-3-ethoxyphenyl)piperidine-4-carbonyl)piperidin-4-yl)methyl)piperazin-1-yl)methyl)phenyl)-5-(5-ethyl-2,4-dihydroxyphenyl)-N-(2,2,2-trifluoroethyl)-4H-1,2,4-triazole-3-carboxamide]	B (DC50 = 100-1000 nM)
> 1	–	< 0.1	C (< 33% degradation)	C (< 33% degradation)	B (33-66% degradation)	A (>66% degradation)	0.1 to 1	CCOc1cc(N2CCC(C(=O)NCc3ccc(-n4c(O)nnc4-c4cc(C(C)C)c(O)cc4O)cc3F)CC2)ccc1Nc1ncc2c(n1)N(C)c1ccccc1C(=O)N2C [Compound 036, N-(4-(3-(2,4-dihydroxy-5-isopropylphenyl)-5-hydroxy-4H-1,2,4-triazol-4-yl)-2-fluorobenzyl)-1-(4-((5,11-dimethyl-6-oxo-6,11-dihydro-5H-benzo[e]pyrimido[5,4-b][1,4]diazepin-2-yl)amino)-3-ethoxyphenyl)piperidine-4-carboxamide]	B (DC50 = 100-1000 nM)
> 1	> 1	> 1	–	–	–	–	–	CCOc1cc(N2CCC(C(=O)N3CCC(N4CCN(C(=O)O[C@H]5CC[C@H](Nc6cc(-n7nc(C(F)(F)F)c8c7CC(C)(C)CC8=O)ccc6C(N)=O)CC5)CC4)CC3)CC2)ccc1Nc1ncc2c(n1)N(C)c1ccccc1C(=O)N2C [Compound 125, (1R,4R)-4-((2-carbamoyl-5-(6,6-dimethyl-4-oxo-3-(trifluoromethyl)-4,5,6,7-tetrahydro-1H-indazol-1-yl)phenyl)amino)cyclohexyl 4-(1-(1-(4-((5,11-dimethyl-6-oxo-6,11-dihydro-5H-benzo[e]pyrimido[5,4-b][1,4]diazepin-2-yl)amino)-3-ethoxyphenyl)piperidine-4-carbonyl)piperidin-4-yl)piperazine-1-carboxylate]	–
0.1 to 1	0.1 to 1	< 0.1	–	–	–	–	–	CCOc1cc(N2CCC(C(=O)N3CCC(CN4CCN(C(=O)c5ccc(-n6c(O)nnc6-c6cc(C(C)C)c(O)cc6O)cc5)CC4)CC3)CC2)ccc1Nc1ncc2c(n1)N(C)c1ccccc1C(=O)N2C [Compound 126, 2-((4-(4-(4-((4-(4-(3-(2,4-dihydroxy-5-isopropylphenyl)-5-hydroxy-4H-1,2,4-triazol-4-yl)benzoyl)piperazin-1-yl)methyl)piperidine-1-carbonyl)piperidin-1-yl)-2-ethoxyphenyl)amino)-5,11-dimethyl-5,11-dihydro-6H-benzo[e]pyrimido[5,4-b][1,4]diazepin-6-one]	–
